Data: patent US20250195536A1, “BICYCLOOCTANE KRAS INHIBITORS” (Incyte Corporation, priority 2023, published 2025)

Key:
KRAS G12D = KRAS G12D (Homo sapiens, UniProt P01116, G12D); test: GDP-GTP exchange assay (KRAS G12D); format: biochemical; details: bodipy-GDP/GppNHp exchange with SOS1; 4 h pre-incubation, 2 h reaction;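 note: one dagger IC50 up to 100 nM and two daggers above 100 nM up to 1 μM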
Summary of the method: (§1)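 IC50 came from a four-parameter fit of fluorescence loss (485/520 nm) as SOS1 (150 nM) swapped bodipy-GDP for GppNHp (500 μM) on 2.5 nM KRAS, final concentrations. Compounds were pre-incubated 4 h at r.t. (pH 7.5 Hepes, 10 mM MgCl2); exchange ran 2 h (G12D) or 3 h (G12V).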

KRAS G12V = KRAS G12V (Homo sapiens, UniProt P01116, G12V); test: GDP-GTP exchange assay (KRAS G12V); format: biochemical; details: bodipy-GDP/GppNHp exchange with SOS1; 3 h incubation after GppNHp-SOS1;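 note: one dagger IC50 up to 100 nM and two daggers above 100 nM up to 1 μM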
Summary of the method: as §1

[1] = Caco2 assay (permeability, Papp A-B); format: in vitro ADME; details: human, Caco-2, absorptive direction (A-B), 50 μM test compound, 4% BSA in receiver
Description: Caco-2 cells are grown at 37° C. in an atmosphere of 5% CO2 in DMEM growth medium supplemented with 10% (v/v) fetal bovine serum, 1% (v/v) nonessential amino acids, penicillin (100 U/mL), and streptomycin (100 μg/mL). Confluent cell monolayers are subcultured every 7 days or 4 days for Caco-2 by treatment with 0.05% trypsin containing […]. Caco-2 cells are seeded in 96-well Transwell plates. The seeding density for Caco-2 cells is 14,000 cells/well. DMEM growth medium is replaced every other day after seeding. Cell monolayers are used for transport assays between 22 and 25 days for Caco-2 cells.
Cell culture medium is removed and replaced with HBSS. To measure the TEER, the HBSS is added into the donor compartment (apical side) and receiver compartment (basolateral side). The TEER is measured by using a REMS Autosampler to ensure the integrity of the cell monolayers. Caco-2 cell monolayers with TEER values 300 Ω·cm^2 are used for transport experiments. To determine the Papp in the absorptive direction (A-B), solution of test compound (50 μM) in HBSS is added to the donor compartment (apical side), while HBSS solution with 4% BSA is added to the receiver compartment (basolateral side). The apical volume was 0.075 mL, and the basolateral volume is 0.25 mL. The incubation period is 120 min. at 37° C. in an atmosphere of 5% CO2. At the end of the incubation period, samples from the donor and receiver sides are removed and an equal volume of MeCN is added for protein precipitation. The supernatants are collected after centrifugation (3000 rpm, Allegra X-14R Centrifuge from Beckman Coulter, Indianapolis, IN) for LCMS analysis. The permeability value is determined according to the equation:
Papp(cm/s)=(F*VD)/(SA*MD),
where the flux rate (F, mass/time) is calc. from the slope of cumulative amounts of compound of interest on the receiver side, SA is the surface area of the cell membrane, VD is the donor volume, and MD is the initial amount of the solution in the donor chamber.
The symbol “+” indicates a Caco-2 value of ≤0.5, “++” indicates a Caco-2 value of >0.5 but ≤1; and “+++” indicates a Caco-2 value of >1. “NA” indicates Caco-2 value not available.

Sequence of KRAS G12V (P01116 1-188 isoform P01116-2 G12V): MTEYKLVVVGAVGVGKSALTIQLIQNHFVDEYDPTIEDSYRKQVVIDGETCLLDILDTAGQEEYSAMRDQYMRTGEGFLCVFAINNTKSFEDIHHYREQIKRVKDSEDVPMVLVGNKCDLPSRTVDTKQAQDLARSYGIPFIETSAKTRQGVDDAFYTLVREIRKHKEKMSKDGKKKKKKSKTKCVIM
Sequence of KRAS G12D (P01116 1-188 isoform P01116-2 G12D): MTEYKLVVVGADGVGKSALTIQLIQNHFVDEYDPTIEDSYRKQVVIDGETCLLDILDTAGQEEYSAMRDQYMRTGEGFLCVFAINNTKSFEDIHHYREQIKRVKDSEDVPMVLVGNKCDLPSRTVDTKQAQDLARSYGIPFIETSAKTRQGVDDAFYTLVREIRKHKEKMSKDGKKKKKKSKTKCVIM

G12D_exchange (KRAS_G12D exchange assay IC50) (KRAS G12D) | G12V_exchange (KRAS_G12V exchange assay IC50) (KRAS G12V) | Papp A→B at 120 min, 50 μM [1] | SMILES
† | † | > 1 ×10⁻⁶ cm/s | Cc1nc2c(F)c(-c3cccc(Cl)c3Cl)c(CCC#N)cc2c2c1cc([C@H]1[C@H]3C[C@H](CN(c4ncc(C(C)C)s4)C3)N1C(=O)C1CC1)n2[C@H]1[C@H]2CN[C@@H]1C2 (atropisomer, axis not shown; (Ra)) [Example 32, 3-((Ra)-1-((1R,4R,5S)-2-Azabicyclo[2.1.1]hexan-5-yl)-2-((1 S,5R,7R)-6-(cyclopropanecarbonyl)-3-(5-isopropylthiazol-2-yl)-3,6-diazabicyclo[3.2.1]octan-7-yl)-7-(2,3-dichlorophenyl)-6-fluoro-4-methyl-1H-pyrrolo[3,2-c]quinolin-8-yl)propanenitrile]
† | † | ≤ 0.5 ×10⁻⁶ cm/s | Cc1nc2c(F)c(-c3cccc(Cl)c3Cl)c(CCC#N)cc2c2c1cc([C@H]1[C@H]3C[C@H](CN(c4ccc5c(c4)OC(F)(F)O5)C3)N1C(=O)C1CC1)n2[C@H]1[C@H]2CN[C@@H]1C2 (atropisomer, axis not shown; (Ra)) [Example 7, 3-((Ra)-1-((1R,4R,5S)-2-azabicyclo[2.1.1]hexan-5-yl)-2-((1S,5R,7R)-6-(cyclopropanecarbonyl)-3-(2,2-difluorobenzo[d][1,3]dioxol-5-yl)-3,6-diazabicyclo[3.2.1]octan-7-yl)-7-(2,3-dichlorophenyl)-6-fluoro-4-methyl-1H-pyrrolo[3,2-c]quinolin-8-yl)propanenitrile]
† | † | ≤ 0.5 ×10⁻⁶ cm/s | Cc1nc2c(F)c(-c3cccc(Cl)c3Cl)c(CCC#N)cc2c2c1cc([C@H]1[C@H]3C[C@H](CN(c4ccc(F)cc4)C3)N1C(=O)C1CC1)n2[C@H]1[C@H]2CN[C@@H]1C2 (atropisomer, axis not shown; (Ra)) [Example 23, 3-((Ra)-1-((1R,4R,5S)-2-azabicyclo[2.1.1]hexan-5-yl)-2-((1S,5R,7R)-6-(cyclopropanecarbonyl)-3-(4-fluorophenyl)-3,6-diazabicyclo[3.2.1]octan-7-yl)-7-(2,3-dichlorophenyl)-6-fluoro-4-methyl-1H-pyrrolo[3,2-c]quinolin-8-yl)propanenitrile]
† | † | 0.5 to 1 ×10⁻⁶ cm/s | Cc1c(N2C[C@@H]3C[C@H](C2)N(C(=O)C2CC2)[C@H]3c2cc3c(C)nc4c(F)c(-c5cccc(Cl)c5Cl)c(CCC#N)cc4c3n2[C@H]2[C@H]3CN[C@@H]2C3)ccnc1F (atropisomer, axis not shown; (Ra)) [Example 76, 3-((Ra)-1-((1R,4R,5S)-2-azabicyclo[2.1.1]hexan-5-yl)-2-((1S,5R,7R)-6-(cyclopropanecarbonyl)-3-(2-fluoro-3-methylpyridin-4-yl)-3,6-diazabicyclo[3.2.1]octan-7-yl)-7-(2,3-dichlorophenyl)-6-fluoro-4-methyl-1H-pyrrolo[3,2-c]quinolin-8-yl)propanenitrile]
† | † | 0.5 to 1 ×10⁻⁶ cm/s | Cc1cnc(N2C[C@@H]3C[C@H](C2)N(C(=O)C2CC2)[C@H]3c2cc3c(C)nc4c(F)c(-c5cccc(Cl)c5Cl)c(CCC#N)cc4c3n2[C@H]2[C@H]3CN[C@@H]2C3)c(F)c1 (atropisomer, axis not shown; (Ra)) [Example 53, 3-((Ra)-1-((1R,4R,5S)-2-azabicyclo[2.1.1]hexan-5-yl)-2-((1S,5R,7R)-6-(cyclopropanecarbonyl)-3-(3-fluoro-5-methylpyridin-2-yl)-3,6-diazabicyclo[3.2.1]octan-7-yl)-7-(2,3-dichlorophenyl)-6-fluoro-4-methyl-1H-pyrrolo[3,2-c]quinolin-8-yl)propanenitrile]
† | † | ≤ 0.5 ×10⁻⁶ cm/s | Cc1nc2c(F)c(-c3cccc(Cl)c3Cl)c(CCC#N)cc2c2c1cc([C@H]1[C@H]3C[C@H](CN(c4cncc(C(F)(F)F)c4)C3)N1C(=O)C1CC1)n2[C@H]1[C@H]2CN[C@@H]1C2 (atropisomer, axis not shown; (Ra)) [Example 21, 3-((Ra)-1-((1R,4R,5S)-2-azabicyclo[2.1.1]hexan-5-yl)-2-((1S,5R,7R)-6-(cyclopropanecarbonyl)-3-(5-(trifluoromethyl)pyridin-3-yl)-3,6-diazabicyclo[3.2.1]octan-7-yl)-7-(2,3-dichlorophenyl)-6-fluoro-4-methyl-1H-pyrrolo[3,2-c]quinolin-8-yl)propanenitrile]
† | † | ≤ 0.5 ×10⁻⁶ cm/s | Cc1nc(N2C[C@@H]3C[C@H](C2)N(C(=O)C2CC2)[C@H]3c2cc3c(C)nc4c(F)c(-c5cccc(Cl)c5Cl)c(CCC#N)cc4c3n2[C@H]2[C@H]3CN[C@@H]2C3)sc1C (atropisomer, axis not shown; (Ra)) [Example 95, 3-((Ra)-1-((1R,4R,5S)-2-azabicyclo[2.1.1]hexan-5-yl)-2-((1S,5R,7R)-6-(cyclopropanecarbonyl)-3-(4,5-dimethylthiazol-2-yl)-3,6-diazabicyclo[3.2.1]octan-7-yl)-7-(2,3-dichlorophenyl)-6-fluoro-4-methyl-1H-pyrrolo[3,2-c]quinolin-8-yl)propanenitrile]
† | † | ≤ 0.5 ×10⁻⁶ cm/s | Cc1nc2c(F)c(-c3cccc(Cl)c3Cl)c(CCC#N)cc2c2c1cc([C@H]1[C@H]3C[C@H](CN(c4cccnc4)C3)N1C(=O)C1CC1)n2[C@H]1[C@H]2CN[C@@H]1C2 (atropisomer, axis not shown; (Ra)) [Example 9, 3-((Ra)-1-((1R,4R,5S)-2-azabicyclo[2.1.1]hexan-5-yl)-2-((1S,5R,7R)-6-(cyclopropanecarbonyl)-3-(pyridin-3-yl)-3,6-diazabicyclo[3.2.1]octan-7-yl)-7-(2,3-dichlorophenyl)-6-fluoro-4-methyl-1H-pyrrolo[3,2-c]quinolin-8-yl)propanenitrile]
† | † | ≤ 0.5 ×10⁻⁶ cm/s | Cc1nc2c(F)c(-c3cccc(Cl)c3Cl)c(CCC#N)cc2c2c1cc([C@H]1[C@H]3C[C@H](CN(c4ccnc(C(=O)N(C)C)c4)C3)N1C(=O)C1CC1)n2[C@H]1[C@H]2CN[C@@H]1C2 [Example 64, 4-((1S,5R,7R)-7-((Ra)-1-((1R,4R,5S)-2-azabicyclo[2.1.1]hexan-5-yl)-8-(2-cyanoethyl)-7-(2,3-dichlorophenyl)-6-fluoro-4-methyl-1H-pyrrolo[3,2-c]quinolin-2-yl)-6-(cyclopropanecarbonyl)-3,6-diazabicyclo[3.2.1]octan-3-yl)-N,N-dimethylpicolinamide]
† | † | ≤ 0.5 ×10⁻⁶ cm/s | Cc1nc2c(F)c(-c3cccc(Cl)c3Cl)c(CCC#N)cc2c2c1cc([C@H]1[C@H]3C[C@H](CN(c4ccnc(Br)c4)C3)N1C(=O)C1CC1)n2[C@H]1[C@H]2CN[C@@H]1C2 (atropisomer, axis not shown; (Ra)) [Example 74, 3-((Ra)-1-((1R,4R,5S)-2-azabicyclo[2.1.1]hexan-5-yl)-2-((1S,5R,7R)-3-(2-bromopyridin-4-yl)-6-(cyclopropanecarbonyl)-3,6-diazabicyclo[3.2.1]octan-7-yl)-7-(2,3-dichlorophenyl)-6-fluoro-4-methyl-1H-pyrrolo[3,2-c]quinolin-8-yl)propanenitrile]
